From patent US9150555B2, “Amide derivative and use thereof” (Mitsubishi Tanabe Pharma Corporation, priority 2010, dated 2015)

What was measured:
[1] = system: IL-17 production of mouse spleen cells stimulated by rm-IL-23; assay: Production of IL-17 induced when mouse spleen cells were stimulated by recombinant mouse interleukin-23 (rm-IL-23); format: cell-based; settings: inhibition of IL-17 production, DBA/1J mouse spleen cells, rm-IL-23 1 nmol/L, ELISA
Outline: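 Spleen cells from 6-7 week-old male DBA/1J mice, 2×10^5 cells/well in 10% FCS RPMI1640, cultured 72 h at 37° C with compound (1 to 1,000 nmol/L) plus 1 nmol/L rm-IL-23. IL-17 in supernatant by ELISA; viability by WST-8 absorbance at 450 nm; IC50 by linear regression of inhibition rate.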

hERG [2] = biological target: T1, hERG (Homo sapiens, UniProt Q12809); assay: in vitro; settings: pH 7.4, hERG inhibition rate (%) (1 μM)
[3] = biological target: hERG current in hERG-expressed HEK 293 cells (Homo sapiens, UniProt Q12809); assay: Effects on hERG current (whole-cell clamping); settings: 1 μM; tail peak current; hERG-expressed HEK 293 cells
[4] = system: Type II collagen-induced arthritis in DBA/1J mice; assay: Type II collagen-induced arthritis in DBA/1J mice; format: in vivo, mouse; settings: dose showing significant inhibitory effect on arthritis, oral, once a day for three weeks from booster immunization; for minimal effective dose: Mus musculus, 504 h
Procedure: Effect on Type II Collagen-Induced Arthritis in DBA/1J Mice
An emulsion was prepared by mixing bovine II collagen (100-200 μg purchased from collagen Gijyutsu Kenshuukai) and Freund's complete adjuvant (Sigma Aldrich) containing killed Mycobacterium tuberculosis H37Ra. Arthritis was induced by immunization through subcutaneous administration of the emulsion to the tail of 6-7 week-old male DBA/1J mouse (Charles River Japan, Inc.), followed by booster immunization three weeks later by administration of an emulsion prepared by mixing bovine II collagen with Freund's incomplete adjuvant (Sigma-Aldrich). Test compound was suspended or dissolved in 0.5% carboxymethylcellulose (Sigma-Aldrich) and repeatedly administered orally once a day at a dose of 0.1 to 10 mg/kg body weight using an oralsonde for three weeks from the day of booster immunization. In this model, the symptom of arthritis of the limbs was each evaluated according to the following evaluation criteria of 0 to 4 scores: 0, No change; 1, edema in only one joint; 2, edema in two or more joints, or light edema of the entire limb; 3, severe edema of the entire limb; 4, severe edema of the entire limb and ankylosis and immovability of joint. The score of arthritis of each mouse was expressed as the total of the scores of the limbs (Maximum: 16 points). On the next day of the last administration, soft X-ray photograph of the limbs was taken with soft X-ray equipment (Omic), and the level of joint destruction was evaluated by observation under a microscope. In each finger of the limbs the score of joint destruction was judged as 0 when no joint destruction was found, and as 1 when one or more destruction was found, and the score of joint destruction of a mouse was expressed as the total of scores for each finger of limb (Maximum: 20). The arthritis score and joint destruction score were expressed as the average value and standard error for each group (n=6-8). Only a vehicle was administered in a control group, and statistical analysis was performed by Dunnett's multiple comparison test, in which the case was judged as significant when the p value was less than 0.05.

hERG [5] = biological target: T1, hERG; assay: Effects on hERG current (whole-cell clamping); settings: human, HEK 293 cells that express hERG, pH 7.4, hERG inhibition rate (%) (1 μM), 1 μM; tail peak current; hERG-expressed HEK 293 cells

T1 sequence (Q12809 whole entry): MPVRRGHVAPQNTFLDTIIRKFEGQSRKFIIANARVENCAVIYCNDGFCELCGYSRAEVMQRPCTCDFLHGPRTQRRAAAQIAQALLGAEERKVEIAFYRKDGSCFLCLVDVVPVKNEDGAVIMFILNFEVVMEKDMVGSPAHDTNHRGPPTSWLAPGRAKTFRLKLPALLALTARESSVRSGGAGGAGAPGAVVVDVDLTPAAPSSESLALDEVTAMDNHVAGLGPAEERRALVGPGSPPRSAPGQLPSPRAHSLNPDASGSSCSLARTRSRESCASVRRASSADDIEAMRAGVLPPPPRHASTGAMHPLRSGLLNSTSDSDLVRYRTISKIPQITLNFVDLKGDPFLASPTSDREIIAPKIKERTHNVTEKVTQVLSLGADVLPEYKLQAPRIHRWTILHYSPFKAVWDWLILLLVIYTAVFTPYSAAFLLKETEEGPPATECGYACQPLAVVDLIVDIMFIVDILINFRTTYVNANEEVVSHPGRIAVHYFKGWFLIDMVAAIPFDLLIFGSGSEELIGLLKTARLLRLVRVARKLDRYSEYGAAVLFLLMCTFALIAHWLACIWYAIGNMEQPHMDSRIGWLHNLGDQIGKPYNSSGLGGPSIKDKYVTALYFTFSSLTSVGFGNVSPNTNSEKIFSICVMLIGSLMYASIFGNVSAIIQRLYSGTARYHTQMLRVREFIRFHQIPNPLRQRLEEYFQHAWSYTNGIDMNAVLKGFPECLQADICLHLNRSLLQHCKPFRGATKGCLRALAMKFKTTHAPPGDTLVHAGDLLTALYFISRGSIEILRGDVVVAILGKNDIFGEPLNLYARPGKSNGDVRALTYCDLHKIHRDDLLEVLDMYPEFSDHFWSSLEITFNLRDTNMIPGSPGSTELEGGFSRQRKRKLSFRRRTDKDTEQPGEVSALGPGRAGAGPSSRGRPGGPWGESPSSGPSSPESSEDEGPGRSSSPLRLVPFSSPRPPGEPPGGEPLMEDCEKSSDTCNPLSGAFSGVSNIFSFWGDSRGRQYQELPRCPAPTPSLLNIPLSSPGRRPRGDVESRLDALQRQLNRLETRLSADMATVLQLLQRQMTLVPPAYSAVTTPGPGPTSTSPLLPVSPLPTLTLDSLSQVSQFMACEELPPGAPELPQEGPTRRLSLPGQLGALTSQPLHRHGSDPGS
Sequence of hERG current in hERG-expressed HEK 293 cells (Q12809 whole entry): as above

Structure (SMILES) | IC50 ([1]; 72 hours) [nM] | inhibition at 1 µM (hERG [2]) [%] | IC50 ([1]; Mus musculus, 72 h) [nM] | minimal effective dose [4] [mg/kg] | inhibition at 1 µM (hERG [5]) [%] | other results
Cc1c(C(=O)Nc2ccc(C3(C#N)CCN([C@H]4CCO[C@H]4C)CC3)nc2)cnn1-c1ccc(C(F)(F)F)cn1 (relative stereo) [Example D8, cis-N-{6-[4-Cyano-1-(2-methyltetrahydrofuran-3-yl)piperidin-4-yl]pyridin-3-yl}-5-methyl-1-[5-(trifluoromethyl)pyridin-2-yl]-1H-pyrazole-4-carboxamide] | 114 | 15.8 | – | – | – | –
Cc1c(C(=O)Nc2ccc(C3(C#N)CCN([C@H]4CCO[C@H]4C)CC3)nc2)cnn1-c1ccc(C2CC2)cn1 (relative stereo) [Example D10, cis-N-{6-[4-Cyano-1-(2-methyltetrahydrofuran-3-yl)piperidin-4-yl]pyridin-3-yl}-1-(5-cyclopropylpyridin-2-yl)-5-methyl-1H-pyrazole-4-carboxamide] | 120 | 6.7 | – | – | – | –
Cc1c(C(=O)Nc2ccc(C3(C#N)CCN([C@H]4CCO[C@H]4C)CC3)nc2)cnn1-c1ccc(C(F)(F)F)cc1 (relative stereo) [Example D11, cis-N-{6-[4-Cyano-1-(2-methyltetrahydrofuran-3-yl)piperidin-4-yl]pyridin-3-yl}-5-methyl-1-[4-(trifluoromethyl)phenyl]-1H-pyrazole-4-carboxamide] | 53.4 | 21 | – | – | – | –
Cc1ccc(-n2ncc(C(=O)Nc3ccc(C4(C#N)CCC(N5CCOCC5)CC4)nc3)c2C)cc1.Cl (stereo not drawn) [Example D2, N-{6-[r-1-Cyano-c-4-(morpholin-4-yl)cyclohexyl]pyridin-3-yl}-5-methyl-1-(4-methylphenyl)-1H-pyrazole-4-carboxamide hydrochloride] | 193 | – | – | – | – | hERG inhibition rate (%) (1 μM) [3]: 43.4%
Cc1c(C(=O)Nc2ccc(C3(C#N)CCN(CC(C)(C)O)CC3)nc2)cnn1-c1ccc(C(F)(F)F)cn1 [Example D9, N-{6-[4-Cyano-1-(2-hydroxy-2-methylpropyl)piperidin-4-yl]pyridin-3-yl}-5-methyl-1-[5-(trifluoromethyl)pyridin-2-yl]-1H-pyrazole-4-carboxamide] | 76.7 | 42.1 | – | – | – | –
Cc1c(C(=O)Nc2ccc(C3(C#N)CCN(CC(C)(C)O)CC3)nc2)cnn1-c1ccc(C2CC2)cn1 [Example D12, N-{6-[4-Cyano-1-(2-hydroxy-2-methylpropyl)piperidin-4-yl]pyridin-3-yl}-1-(5-cyclopropylpyridin-2-yl)-5-methyl-1H-pyrazole-4-carboxamide] | 117 | 29.2 | – | – | – | –
CS(=O)(=O)O.Cc1cc(NC(=O)c2cnn(-c3ccc(C(F)(F)F)cn3)c2C)cnc1C1=CCC(N2CCOCC2)CC1 (stereo not drawn) [Example D20, 5-Methyl-N-{5-methyl-6-[4-(morpholin-4-yl)cyclohex-1-en-1-yl]pyridin-3-yl}-1-[5-(trifluoromethyl)pyridin-2-yl]-1H-pyrazole-4-carboxamide mesylate] | – | – | 56.4 | 1 | 32.2 | –
Cc1c(C(=O)Nc2ccc(C3(C#N)CCN(CC(C)(C)O)CC3)nc2)cnn1-c1ccc(Cl)cc1 [Example D116] | 129 | 41.2 | – | – | – | –
Cc1c(C(=O)Nc2ccc(C3(C#N)CCN(CC(C)(C)O)CC3)nc2)cnn1-c1ccc(C(F)(F)F)cc1 [Example D117] | 57 | 35.6 | – | – | – | –
Cc1c(C(=O)Nc2ccc([C@]3(C#N)CC[C@@H](N4CCOCC4)CC3)nc2)cnn1-c1ccc(C(F)(F)F)cc1 [Example D146] | – | – | 46.6 | 0.1 | 47.2 | –
Cc1cc(NC(=O)c2cnn(-c3ccc(C(F)(F)F)cn3)c2C)cnc1C1=CC[C@@H](N2CCOCC2)CC1 [Example D303] | 48 | – | – | – | – | hERG inhibition rate (%) (1 μM) [3]: 22.7%
Cc1c(C(=O)Nc2ccc(C3(C#N)CCN(C4CCOCC4)CC3)nc2)cnn1-c1ccc(C(F)(F)F)cc1 [Example E7] | 349 | 21.1 | – | – | – | –
Cc1c(C(=O)Nc2ccc(C3CCC(=O)CC3)nc2)cnn1-c1ccc(Cl)cc1 [Example E13] | – | – | 109 | 1 | 10.3 | –
Cc1cc(NC(=O)c2cnn(-c3ccc(C(F)(F)F)cc3)c2C)cnc1C1=CCC(N2CCOCC2)CC1 (stereo not drawn) [Example E24] | – | – | – | 1 | – | –
Cc1c(C(=O)Nc2ccc([C@]3(C#N)CC[C@@H](O)CC3)nc2)cnn1-c1ccc(Cl)cc1 [Example G1, 1-(4-Chlorophenyl)-N-[6-(r-1-cyano-c-4-hydroxycyclohexyl)pyridin-3-yl]-5-methyl-1H-pyrazole-4-carboxamide] | – | – | 118 | 3 | 25.8 | –
Cc1c(C(=O)Nc2ccc([C@]3(C#N)CC[C@@H](O)CC3)nc2)cnn1-c1ccc(F)cc1 [Example G2, N-[6-(r-1-cyano-c-4-hydroxycyclohexyl)pyridin-3-yl]-1-(4-fluorophenyl)-5-methyl-1H-pyrazole-4-carboxamide] | – | – | 194 | 1 | 15.2 | –
Cc1ccc(-n2ncc(C(=O)Nc3ccc([C@]4(C#N)CC[C@@H](O)CC4)nc3)c2C)cc1 [Example G3, N-[6-(r-1-Cyano-c-4-hydroxycyclohexyl)pyridin-3-yl]-5-methyl-1-(4-methylphenyl)-1H-pyrazole-4-carboxamide] | – | – | 91.8 | 1 | 4.4 | –
Cc1c(C(=O)Nc2ccc([C@]3(C#N)CC[C@@H](O)CC3)nc2)cnn1-c1ccc(C(F)(F)F)cc1 [Example G6] | – | – | 73.9 | – | 26 | Effective Dose [4]: 10 mg/kg
Cc1c(C(=O)Nc2ccc([C@]3(C#N)CC[C@@H](O)CC3)nc2)cnn1-c1ccc(F)cc1F [Example G7] | – | – | 198 | 0.3 | 5.2 | –
Cc1c(C(=O)Nc2ccc([C@]3(C#N)CC[C@H](O)CC3)nc2)cnn1-c1ccc(C(F)(F)F)cc1 [Example K2] | – | – | – | 10 | – | –
Cc1cc(NC(=O)c2cnn(-c3ccc(C(F)(F)F)cn3)c2C)cnc1C1=CCN(C(=O)N2CCCC2)CC1 [Example K52, 5-Methyl-N-{5-methyl-1-(pyrrolidin-1-ylcarbonyl)-6-[1,2,3,6-tetrahydropyridin-4-yl]pyridin-3-yl}-1-[5-(trifluoromethyl)pyridin-2-yl]-1H-pyrazole-4-carboxamide] | – | – | 160 | – | 31.5 | –
Cc1cc(NC(=O)c2cnn(-c3ccc(C(F)(F)F)cn3)c2C)cnc1C1CCN(S(=O)(=O)C(C)C)CC1 [Example K55, 5-Methyl-N-{5-methyl-6-[1-(propane-2-sulfonyl)piperidin-4-yl]pyridin-3-yl}-1-[5-(trifluoromethyl)pyridin-2-yl]-1H-pyrazole-4-carboxamide] | – | – | 46.4 | – | 29.5 | –
Cc1cc(NC(=O)c2cnn(-c3ccc(C(F)(F)F)cn3)c2C)cnc1C1CCN(C(=O)C(F)(F)F)CC1 [Example K60, 5-Methyl-N-{5-methyl-6-[1-(trifluoroacetyl)piperidin-4-yl]pyridin-3-yl}-1-[5-(trifluoromethyl)pyridin-2-yl]-1H-pyrazole-4-carboxamide] | – | – | 47.2 | – | 22.8 | –
Cc1c(C(=O)Nc2cnc(C3=CCC(N(C)C(=O)C(C)(C)C)CC3)cn2)cnn1-c1ccc(C(F)(F)F)cn1 (stereo not drawn) [Example K64, N-(5-{4-[N-(2,2-Dimethylpropion-1-yl)-N-methylamino]cyclohex-1-en-1-yl}pyrazin-2-yl)-5-methyl-1-[5-(trifluoromethyl)pyridin-2-yl]-1H-pyrazole-4-carboxamide] | – | – | 157 | – | 2.3 | –
